Data reported in patent US8338473B2, “Derivatives of psammaplin A, a method for their synthesis and their uses for the prevention or treatment of cancer” (Centre National de la Recherche Scientifique, priority 2007, dated 2012).
Like-named read-outs stand apart in the source and are kept apart here.

How the values were obtained:
p16INK4a promoter = assay: Methylation specific PCR for the p16 gene; assay type: cell-based; details: 24 hrs
Experimental: FIG. 2: a) Methylation specific PCR for the RARβ gene after 16 and 24 hrs of treatment with the indicated compounds; b) Methylation specific PCR for the p16 gene after 24 hrs of the indicated treatments. Samples are representative of real duplicates; c) p16 expression levels in U937 cells after 24 hrs with the indicated treatments; d) DNMT enzymatic in vitro assay carried out with 1.5 and 50 μM of the indicated compounds;
DNA extraction was performed as described below. Bisulfite treatment and PCR for the determination of p16 methylation was performed as described from the suppliers (Chemicon).

[1] = test system: ex vivo AML patient blasts; assay: Cell cycle and apoptosis in ex vivo AML patient blasts; assay type: cell-based, human; details: for cell cycle arrest and apoptosis (caspase 3 activation): 4 ex vivo cultures, AML patients #102, #108, #109, #116
Experimental: FIG. 4: a) Cell cycle analyses and apoptosis carried out in ex vivo samples from AML patients identified with numbers; b) Cell cycle analysis, apoptosis and histone H3 acetylation levels of #116 AML cells after 20 hrs is of the indicated treatments.
(§1) Human leukemia cell line U937 was propagated in RPMI medium supplemented with 10% FBS (Foetal bovine serum; Hyclone) and antibiotics (100 U/mL penicillin, 100 μg/mL streptomycin and 250 ng/mL amphotericin-B). Cells were kept at the constant concentration of 200000 cells per milliliter of culture medium. For AML samples, bone marrow containing 80% to 90% leukemic blasts was purified over Ficoll. This study was approved by the Ethical Committee of the Second University of Naples.

[2] = test system: HCT-116 colon carcinoma cells xenografted in immunoincompetent mice; details: for Normalised tumour weight: mean of n = 10
A-375 cells = assay: MTT cytotoxicity assay, A-375; details: read-out: IC50 values, MTT cytotoxicity assay; A-375, 48 h
DU-145 cells = assay: MTT cytotoxicity assay, DU-145; details: read-out: IC50 values, MTT cytotoxicity assay; DU-145, 48 h
HCT-116 cells = assay: MTT cytotoxicity assay, HCT-116; details: read-out: IC50 values, MTT cytotoxicity assay; HCT-116, 48 h
[3] = test system: U937 acute myeloid leukemia cell line; assay: Cell cycle analysis in U937 cells; assay type: cell-based, human
Experimental: (§2) FIG. 1: a) Cell cycle analysis of U937 cells treated for 30 hrs with the indicated compounds used at 1 and 5 μM; b) Caspase 3 apoptotic assay of the indicated compounds after 24 hrs of treatment in the U937 cells; c) Tubulin acetylation and p21 expression levels at 6 and 16 hrs after treatment with the indicated compounds; total tubulin expression levels are used for equal loading; d) Histone H3 acetylation and K9 H3 methylation expression levels at 6 and 16 hrs after treatment with the indicated compounds; total tubulin expression levels are used for equal loading; e) K9, K14, K18 histone H3 acetylation expression levels at 6 and 16 hrs after treatment with the indicated compounds; total ERKs expression levels are used for equal loading; f) HDAC1 enzymatic assay: IP-HDAC1 is incubated with the indicated inhibitors for 24 Hrs; activity is measured as ^3H-acetyl release; g) HDAC4 enzymatic assay: IP-HDAC4 is incubated with the indicated inhibitors for 24 hrs; activity is measured as ^3H-acetyl release.
(§3) FIG. 3: a) Cell cycle and apoptosis analysis carried out in U937 cells after 24 hrs with the indicated compounds; values are media of independent triplicates; b) CD11c expression analysis carried out in U937 cells with the indicated compounds; values are media of independent duplicates; c) Tubuline acetylation and p21 expression levels in U937 cells after 24 hrs with the indicated treatments; total ERKs expression levels are used for equal loading; d) acetylation of histone H3 under the conditions indicated in (c).
as §1
MS-275 (Schering A G) was dissolved in ethanol and used at 5×10^−6M; valproic acid (VPA; Sigma) was used at 1 mM. All other compounds described were dissolved in DMSO (Sigma-Aldrich) and used at 1 or 5 μM.
2.5×10^5 cells were collected and resuspended in 500 μL of a hypotonic buffer (0.1% Triton X-100, 0.1% sodium citrate, 50 μg/mL propidium iodide, RNAse A). Cells were incubated in the dark for 30 min. Samples were acquired on a FACS-Calibur flow cytometer using the Cell Quest software (Becton Dickinson) and analysed with standard procedures using the Cell Quest software (Becton Dickinson) and the ModFit LT version 3 Software (Verity). All the experiments were performed 3 times.

U937 cells = assay: Caspase 3 apoptotic assay in U937 cells; assay type: cell-based, human; details: U937, 24 hrs
Experimental: as §2

p21WAF1/CIP1 = assay: p21 expression, Western blot in U937 cells; assay type: cell-based, human
Experimental: as §2, §3
For the determination of p21^WAF1/CIP1 and p16^INK4 100 μg of total protein extracts were separated on a 15% polyacrylammide gels and blotted. Western blots were shown for p21 (Transduction Laboratories, dilution 1:500), p16 (Santa Cruz) and total ERKs (Santa Cruz) were used to normalise for equal loading. For alpha-tubulin acetylation 25 μg of total protein extracts were separated on a 10% polyacrylamide gels and blotted. […]

[4] = test system: breast cancer cells (ZR75.1); assay: Anti-proliferative and apoptogenic action in breast cancer cells; assay type: cell-based; details: data not shown
[5] = test system: prostate cancer cells (LnCap); assay: Anti-proliferative and apoptogenic action in prostate cancer cells; assay type: cell-based; details: data not shown
histone H3 = assay: Histone H3 acetylation and K9 H3 methylation levels in U937 cells; assay type: cell-based, human; details: U937, 6 and 16 hrs
Experimental: as §2
For the determination of p21^WAF1/CIP1 and p16^INK4 100 μg of total protein extracts were separated on a 15% polyacrylammide gels and blotted. Western blots were shown for p21 (Transduction Laboratories, dilution 1:500), p16 (Santa Cruz) and total ERKs (Santa Cruz) were used to normalise for equal loading. For alpha-tubulin acetylation 25 μg of total protein extracts were separated on a 10% polyacrylamide gels and blotted. Western blots were shown for acetylated alpha-tubulin (Sigma, dilution 1:500) and total ERKs (Santa Cruz) or total tubulin (Sigma) were used to normalise for equal loading.

HDAC1 = HDAC1 (Homo sapiens, UniProt Q13547); assay: HDAC1 enzymatic assay (IP-HDAC1, 3H-acetyl release); assay type: biochemical; details: IP-HDAC1 incubated with inhibitor 24 hrs
HDAC1, sequence (Q13547 whole entry, species assumed): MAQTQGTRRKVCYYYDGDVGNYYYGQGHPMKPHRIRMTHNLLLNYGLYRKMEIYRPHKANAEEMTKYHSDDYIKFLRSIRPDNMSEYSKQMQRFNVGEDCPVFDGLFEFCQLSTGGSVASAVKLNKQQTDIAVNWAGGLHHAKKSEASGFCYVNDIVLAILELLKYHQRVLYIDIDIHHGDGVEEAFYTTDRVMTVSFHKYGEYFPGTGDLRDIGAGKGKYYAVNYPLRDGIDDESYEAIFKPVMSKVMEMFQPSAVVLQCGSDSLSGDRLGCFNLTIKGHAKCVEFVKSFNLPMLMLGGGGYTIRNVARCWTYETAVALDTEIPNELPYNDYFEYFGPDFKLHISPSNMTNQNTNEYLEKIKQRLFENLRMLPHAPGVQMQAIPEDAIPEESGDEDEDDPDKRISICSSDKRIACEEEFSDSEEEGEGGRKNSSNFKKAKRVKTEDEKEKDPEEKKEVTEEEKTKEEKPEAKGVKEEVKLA
Experimental: as §2

HDAC4 = HDAC4 (Homo sapiens, UniProt P56524); assay: HDAC4 enzymatic assay (IP-HDAC4, 3H-acetyl release); assay type: biochemical; details: IP-HDAC4 incubated with inhibitor 24 hrs
HDAC4, sequence (P56524 whole entry, species assumed): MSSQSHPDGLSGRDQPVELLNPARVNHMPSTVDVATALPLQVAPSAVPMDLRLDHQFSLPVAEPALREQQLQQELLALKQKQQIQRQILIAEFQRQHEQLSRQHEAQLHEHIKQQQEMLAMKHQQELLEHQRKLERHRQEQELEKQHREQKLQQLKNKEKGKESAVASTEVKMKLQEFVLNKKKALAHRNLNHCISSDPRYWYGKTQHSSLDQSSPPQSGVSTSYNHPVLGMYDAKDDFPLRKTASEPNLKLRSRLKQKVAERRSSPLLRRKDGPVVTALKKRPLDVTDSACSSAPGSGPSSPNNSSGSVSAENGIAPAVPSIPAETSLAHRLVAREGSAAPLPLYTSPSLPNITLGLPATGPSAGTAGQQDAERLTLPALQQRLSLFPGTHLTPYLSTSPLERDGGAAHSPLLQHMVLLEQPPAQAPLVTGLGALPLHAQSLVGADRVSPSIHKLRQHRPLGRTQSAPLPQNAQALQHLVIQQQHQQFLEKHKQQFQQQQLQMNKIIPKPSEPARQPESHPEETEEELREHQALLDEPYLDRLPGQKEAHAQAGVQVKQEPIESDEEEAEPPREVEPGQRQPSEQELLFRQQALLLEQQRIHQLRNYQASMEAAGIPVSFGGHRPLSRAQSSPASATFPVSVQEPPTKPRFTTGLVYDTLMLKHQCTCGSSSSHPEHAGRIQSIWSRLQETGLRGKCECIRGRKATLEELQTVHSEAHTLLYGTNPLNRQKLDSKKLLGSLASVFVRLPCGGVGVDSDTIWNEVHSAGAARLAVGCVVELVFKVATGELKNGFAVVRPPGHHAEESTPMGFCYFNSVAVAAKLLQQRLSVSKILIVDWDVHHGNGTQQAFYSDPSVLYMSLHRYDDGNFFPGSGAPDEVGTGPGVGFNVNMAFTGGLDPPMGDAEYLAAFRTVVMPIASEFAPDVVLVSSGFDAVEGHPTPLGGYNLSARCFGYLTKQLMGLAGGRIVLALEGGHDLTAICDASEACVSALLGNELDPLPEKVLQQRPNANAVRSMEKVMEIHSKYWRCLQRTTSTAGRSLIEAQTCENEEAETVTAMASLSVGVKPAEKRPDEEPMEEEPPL
HDAC4, sequence (O15379 whole entry partner, species assumed): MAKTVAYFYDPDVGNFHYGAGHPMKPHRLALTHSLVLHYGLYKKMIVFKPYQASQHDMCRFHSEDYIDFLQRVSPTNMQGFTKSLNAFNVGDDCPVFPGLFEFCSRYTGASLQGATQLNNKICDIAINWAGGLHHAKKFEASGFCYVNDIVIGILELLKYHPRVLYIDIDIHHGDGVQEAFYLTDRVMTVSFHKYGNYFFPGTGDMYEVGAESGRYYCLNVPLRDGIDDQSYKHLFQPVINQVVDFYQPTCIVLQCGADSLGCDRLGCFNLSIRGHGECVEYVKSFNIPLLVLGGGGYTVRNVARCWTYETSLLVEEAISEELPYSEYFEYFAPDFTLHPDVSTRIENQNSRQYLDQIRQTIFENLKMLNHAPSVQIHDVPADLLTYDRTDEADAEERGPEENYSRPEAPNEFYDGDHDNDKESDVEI
Experimental: as §2

HDAC6 = molecular target: T1, HDAC6 (Homo sapiens, UniProt Q9UBN7); assay: Alpha tubulin acetylation in U937 cells (HDAC6 readout); assay type: cell-based; details: U937, 6 and 16 hrs
T1 construct: Tubuline acetylation and p21 expression levels in U937 cells after 24 hrs with the indicated treatments; endogenous in cells; host or cells: U937
T1 sequence (Q9UBN7 whole entry): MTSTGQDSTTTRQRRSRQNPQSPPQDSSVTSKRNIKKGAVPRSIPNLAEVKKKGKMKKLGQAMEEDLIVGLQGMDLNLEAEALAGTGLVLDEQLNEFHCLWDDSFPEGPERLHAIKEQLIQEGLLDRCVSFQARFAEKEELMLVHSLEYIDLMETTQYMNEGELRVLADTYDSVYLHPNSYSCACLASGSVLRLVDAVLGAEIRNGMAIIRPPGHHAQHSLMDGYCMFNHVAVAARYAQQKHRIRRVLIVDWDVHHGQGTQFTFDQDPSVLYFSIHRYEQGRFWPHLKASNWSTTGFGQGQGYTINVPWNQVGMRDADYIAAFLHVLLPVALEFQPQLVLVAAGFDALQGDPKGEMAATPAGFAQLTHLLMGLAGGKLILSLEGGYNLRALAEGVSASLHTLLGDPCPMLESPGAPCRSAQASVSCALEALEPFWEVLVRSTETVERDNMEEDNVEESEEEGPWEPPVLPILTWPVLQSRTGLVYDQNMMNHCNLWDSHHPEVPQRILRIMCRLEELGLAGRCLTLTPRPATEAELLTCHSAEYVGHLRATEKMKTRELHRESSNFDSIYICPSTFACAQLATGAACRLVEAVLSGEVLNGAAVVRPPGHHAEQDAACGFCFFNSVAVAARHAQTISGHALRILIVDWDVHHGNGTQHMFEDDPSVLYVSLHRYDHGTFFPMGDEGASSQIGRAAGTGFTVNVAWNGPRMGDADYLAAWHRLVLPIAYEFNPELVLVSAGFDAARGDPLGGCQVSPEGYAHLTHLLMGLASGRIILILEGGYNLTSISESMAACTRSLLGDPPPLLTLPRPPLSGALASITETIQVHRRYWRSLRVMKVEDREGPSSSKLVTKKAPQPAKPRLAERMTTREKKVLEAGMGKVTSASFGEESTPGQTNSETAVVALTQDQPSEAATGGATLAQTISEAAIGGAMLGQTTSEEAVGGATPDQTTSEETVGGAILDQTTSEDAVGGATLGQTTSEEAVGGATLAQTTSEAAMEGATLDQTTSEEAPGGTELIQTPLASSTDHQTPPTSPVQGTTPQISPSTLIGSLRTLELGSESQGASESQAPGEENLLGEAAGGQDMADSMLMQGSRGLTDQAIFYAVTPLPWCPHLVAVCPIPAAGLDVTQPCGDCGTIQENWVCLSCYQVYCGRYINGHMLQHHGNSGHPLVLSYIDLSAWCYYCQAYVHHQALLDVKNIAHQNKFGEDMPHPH
Experimental: as §2, with “release. […]” for “release.”

[6] = test system: histone deacetylases (HDAC); details: in vitro cell-free enzyme assay; read-out: IC50, inhibition of histone deacetylases (HDAC); cited from earlier work
HDAC = details: cited from earlier work
[7] = Earlier tolerability tests in mice; assay type: in vivo; details: 30 mg/kg
Description: There were 10 animals in each group.

[8] = day 1, 20 mg/kg i.p. every second day
[9] = day 4, 20 mg/kg i.p. every second day
[10] = day 12, 20 mg/kg i.p. every second day
[11] = day 17, 20 mg/kg i.p. every second day
[12] = day 22, 20 mg/kg i.p. every second day

## Nc1ncn([C@@H]2O[C@H](CO)[C@@H](O)[C@H]2O)c(=O)n1 [5-azacytidine]
p16INK4a promoter
  unmethylated p16INK4a promoter DNA (MSP): very similar to that seen with UVI5008

## Nc1ccccc1NC(=O)c1ccc(CNC(=O)OCc2cccnc2)cc1 [MS-275]
[1]
  cell cycle arrest and apoptosis (caspase 3 activation): activities similar to UVI5008
[2]; 20 mg/kg i.p. every second day
  Percent Growth Inhibition after 22 days: 35 ± 12%
[2]; [8]
  Normalised tumour weight: 100 ± 25 mg
[2]; [9]
  Normalised tumour weight: 202.6 ± 81.5 mg
[2]; [10]
  Normalised tumour weight: 746.65 ± 185 mg
[2]; [11]
  Normalised tumour weight: 1360.61 ± 288 mg
[2]; [12]
  Normalised tumour weight: 2423.09 ± 445.5 mg
A-375 cells
  IC50: 2400 ± 700 nM
DU-145 cells
  IC50: 8.2 ± 0.6 µM
HCT-116 cells
  IC50: 2300 ± 300 nM

## O=C(NCCSSCCNC(=O)/C(Cc1ccc(O)c(Br)c1)=N/O)/C(Cc1ccc(O)c(Br)c1)=N/O [UVI5000, Psammaplin A]
[3]; U937, 30 hrs, 1 and 5 μM
  cell cycle arrest, position of the block: arrests in the S and G2 phases
U937 cells
  apoptogenic effect (caspase 3): strongest apoptogenic effect
p21WAF1/CIP1; U937, 6 and 16 hrs
  expression of p21WAF1/CIP1: dramatically increased
[4]
  anti-proliferative and apoptogenic action: confirmed
[5]
  anti-proliferative and apoptogenic action: confirmed
Histone H3
  global histone H3 acetylation: moderate time-dependent increase
HDAC1
  HDAC1 inhibition: only a weak inhibitor of HDAC1
HDAC4
  HDAC4 deacetylase activity inhibition: only moderate activity
HDAC6
  inhibition of HDAC6 (alpha tubulin acetylation): inhibited the activity of HDAC6
p16INK4a promoter
  unmethylated p16INK4a promoter DNA (MSP): displayed a similar activity
[1]
  cell cycle arrest and apoptosis (caspase 3 activation): induced cell cycle arrest and apoptosis
[6]
  IC50: 4.2 nM
HDAC
  concentration to inhibit HDAC in cell-based assay relative to enzyme-based assay: 1800 times

## CSCCNC(=O)/C(Cc1c[nH]c2ccc(Br)cc12)=N/O [UVI5020]
[3]; U937, 24 hrs
  cell cycle arrest and apoptosis, relative to UVI5008 (FIG. 3a): inactive at inducing apoptosis and G2M arrest but it induces a G1 arrest
p21WAF1/CIP1; U937, 24 hrs
  p21WAF1/CIP1 induction (FIG. 3c): enhanced expression
[1]; 5 μM, two samples of patient blasts
  apoptotic activity: only a weak induction of apoptosis

## SAHA
[7]
  mortality: 60%
  tolerability: not tolerable
p16INK4a promoter
  unmethylated p16INK4a promoter DNA (MSP): inactive
[1]
  cell cycle arrest and apoptosis (caspase 3 activation): activities similar to UVI5008
[2]; [8]
  Normalised tumour weight: 100 ± 24 mg
[2]; [9]
  Normalised tumour weight: 166.69 ± 56.8 mg
[2]; [10]
  Normalised tumour weight: 892.95 ± 267.6 mg
[2]; [11]
  Normalised tumour weight: 1915.59 ± 409.5 mg
[2]; [12]
  Normalised tumour weight: 2952.8 ± 636.4 mg
